Data as given in patent US10023841B2, “Methods and compositions for treating breast cancer with dendritic cell vaccines” (Baylor Research Institute, priority 2014, dated 2018).

Key:
TAK1 [1] = biological target: T1, TAK1 (Homo sapiens, UniProt O43318); experiment: Caspase-1 activity (FACS) in monocytes treated with cancer-culture sups; format: cell-based; conditions: monocytes treated with cancer-culture sups 16 hours; 200 nm TAK1 inhibitor
T1 construct: endogenous in cells; host or cells: human blood monocytes, monocyte-derived DCs and blood mDCs
T1 sequence (O43318 1-606): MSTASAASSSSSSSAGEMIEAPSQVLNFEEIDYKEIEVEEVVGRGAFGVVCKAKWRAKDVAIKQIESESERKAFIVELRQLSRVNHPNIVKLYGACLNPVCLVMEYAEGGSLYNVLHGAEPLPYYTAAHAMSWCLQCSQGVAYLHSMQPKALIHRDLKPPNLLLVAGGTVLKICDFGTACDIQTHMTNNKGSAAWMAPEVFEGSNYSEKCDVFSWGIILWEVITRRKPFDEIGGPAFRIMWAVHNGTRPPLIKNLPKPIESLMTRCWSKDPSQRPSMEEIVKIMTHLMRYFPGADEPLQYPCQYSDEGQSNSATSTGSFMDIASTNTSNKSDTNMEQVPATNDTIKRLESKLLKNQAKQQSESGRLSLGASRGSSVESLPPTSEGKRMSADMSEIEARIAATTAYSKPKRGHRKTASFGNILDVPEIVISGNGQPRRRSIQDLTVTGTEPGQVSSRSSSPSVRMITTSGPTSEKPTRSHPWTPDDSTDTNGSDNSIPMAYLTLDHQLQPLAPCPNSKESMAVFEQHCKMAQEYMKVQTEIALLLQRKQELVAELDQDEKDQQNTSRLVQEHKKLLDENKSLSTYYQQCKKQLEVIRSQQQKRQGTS
Protocol: For surface staining, cells were incubated with the antibodies for 30 minutes at 4° C. in the dark, then washed three times and fixed with 1% paraformaldehyde to be analyzed in a FACS Canto (Becton Dickinson). […] For caspase-1 staining, cells were incubated with substrates (CaspaLux-E1D2, Oncolmmunin, Inc.) for 50 minutes at 37° C. and washed with washing buffer 2 times, then stained for surface markers for 10 minutes at room temperature.
Monocytes were treated with cancer-culture sups for 16 hours in the presence of a TAK1 specific inhibitor or DMSO as control. Caspase-1 activity was measured using the FACS based method. Cells were gated based on CD11c^+ viable cells.

TAK1 [2] = biological target: T1, TAK1; experiment: IL-1β in co-culture of cancer cells and myeloid cells upon TAK1 inhibition; format: cell-based
Protocol: When mDCs were co-cultured with MDA-MB231 cells for 5-90 minutes, phosphorylated (p)TAK1 could only be detected after 60 minutes (FIG. 7D). To confirm that the phosphorylation of TAK1 is TGF-β mediated, TGF-β signaling blocking reagents (TGF-β neutralizing antibody and TGF-βR kinase inhibitor) were added to the co-culture of cancer cells and mDCs. […] To examine whether TAK1-signaling participate in modulation of IL-1β production, a co-culture of cancer cells and myeloid cells was used. […]

TAK1 [3] = experiment: Phosphorylated TAK1 (FACS) in monocytes or mDCs; format: cell-based, human; conditions: monocytes; 10 ng/ml TGF-β1 for 5-90 minutes

| Molecule | activation of caspase-1 in monocytes (TAK1 [1]) | IL-1β levels in co-culture supernatants (Luminex) (TAK1 [2]; cancer cells with monocytes, MDDC or mDC, 48 hours) | expression of IL-1β by mDCs and monocytes (intracellular staining) (TAK1 [2]; co-culture 16 hours) | phosphorylation of TAK1 (TAK1 [3]) |
| --- | --- | --- | --- | --- |
| COc1cc(O)c2c(c1)/C=C/C[C@H](O)[C@H](O)C(=O)/C=C\C[C@H](C)OC2=O [TAK1 inhibitor, 5z-7-oxozeaenol] | prevented the activation of caspase-1 | Substantially lower amounts of IL-1β were secreted | prevented the expression of IL-1β by mDCs and monocytes | – |
| TGF-β1: soluble TGF-β1 used to treat monocytes | – | – | – | induce phosphorylation of TAK1 as early as 15 minutes |
